IC50 and inhibition data for 22 compounds are collected here from patent publication US11142526B2, “Spirocycle compounds and methods of making and using same” (H. Lundbeck A/S, priority 2017, dated 2021).

Test [1] has as its target MAGL (Homo sapiens (Human), UniProt Q99685). Briefly: In vitro competitive activity-based protein profiling (gel-based, FP-Rh or HT-01 probe). In kind it is biochemical. The conditions noted are these: for inhibition at 1 µM: read-out: MAGL % Inhibition at 1 μM (human PFC). The method, then:
In Vitro Competitive Activity-Based Protein Profiling.
Proteomes (human prefrontal cortex or cell membrane fractions) (50 μL, 1.0 mg/mL total protein concentration) were preincubated with varying concentrations of inhibitors at 37° C. After 30 min, FP-Rh or HT-01 (1.0 μL, 50 μM in DMSO) was added and the mixture was incubated for another 30 min at room temperature. Reactions were quenched with SDS loading buffer (15 μL—4×) and run on SDS-PAGE.

Test [2] deals with MAGL (Mus musculus (Mouse), UniProt O35678). Briefly: In vitro competitive activity-based protein profiling, mouse brain proteome. In kind it is biochemical. As to conditions: for inhibition at 1 µM: mouse; for IC50: mouse brain.
Where [3] appears, read: human PC3, read-out: MAGL Human PC3 (IC50).
The mark [4] stands for this setting: human PFC (prefrontal cortex), read-out: MAGL Human PFC (IC50).

Where two headings read alike, the source gives them in different places. A value given as a limit tells only on which side of the number the result lay.

MAGL (Mus musculus (Mouse), UniProt O35678), sequence (O35678 whole entry): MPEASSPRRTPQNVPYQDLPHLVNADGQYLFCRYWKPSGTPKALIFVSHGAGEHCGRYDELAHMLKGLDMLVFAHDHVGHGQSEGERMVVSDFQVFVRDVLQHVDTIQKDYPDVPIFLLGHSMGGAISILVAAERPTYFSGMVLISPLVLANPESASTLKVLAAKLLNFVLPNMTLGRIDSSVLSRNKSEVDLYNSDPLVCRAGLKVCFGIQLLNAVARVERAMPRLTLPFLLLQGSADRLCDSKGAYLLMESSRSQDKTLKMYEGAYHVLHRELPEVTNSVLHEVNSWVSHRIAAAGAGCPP
MAGL (Homo sapiens (Human), UniProt Q99685), sequence (Q99685 whole entry): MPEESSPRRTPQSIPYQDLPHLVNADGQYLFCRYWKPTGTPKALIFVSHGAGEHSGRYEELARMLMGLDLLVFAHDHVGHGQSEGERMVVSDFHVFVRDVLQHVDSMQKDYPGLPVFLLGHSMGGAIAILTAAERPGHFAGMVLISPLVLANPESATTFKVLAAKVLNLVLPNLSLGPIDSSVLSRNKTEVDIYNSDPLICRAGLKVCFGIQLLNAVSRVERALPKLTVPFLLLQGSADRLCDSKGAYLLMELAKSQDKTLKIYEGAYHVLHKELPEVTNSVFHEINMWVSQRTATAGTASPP

Regarding `O=C(OC(C(F)(F)F)C(F)(F)F)N1CCC2(CCCN2C(=O)c2cc3cccc(F)c3s2)CC1` [Example 96, 1,1,1,3,3,3-Hexafluoropropan-2-yl 1-(7-fluorobenzo[b]thiophene-2-carbonyl)-1,8-diazaspiro[4.5] decane-8-carboxylate], the concentration for half-maximal inhibition (IC50) at MAGL [1] (setting [3]), on MAGL [1] (setting [4]) and on MAGL [2] was under 100 nM throughout. At MAGL [2], the inhibition at 1 µM was over 75%.
Regarding `Cc1c(C(=O)N2CCCC23CCN(C(=O)OC(C(F)(F)F)C(F)(F)F)CC3)[nH]c2ccc(F)cc12` [Example 104, 1,1,1,3,3,3-Hexafluoropropan-2-yl 1-(5-fluoro-3-methyl-1H-indole-2-carbonyl)-1,8-diazaspiro[4.5]decane-8-carboxylate], the 50% inhibitory concentration (IC50) on MAGL [1] (setting [3]) is under 100 nM. Also, on MAGL [2], the inhibition at 1 µM was over 75% and the IC50 is under 100 nM.
As for `O=C(OC(C(F)(F)F)C(F)(F)F)N1CCC2(CCCN2Cc2cc3cc(Cl)cc(Cl)c3[nH]2)CC1` [Example 110, 1,1,1,3,3,3-Hexafluoropropan-2-yl 1-((5,7-dichloro-1H-indol-2-yl)methyl)-1,8-diazaspiro[4.5] decane-8-carboxylate], the IC50 at MAGL [1] (setting [4]) and on MAGL [2] was under 100 nM each time. The inhibition at 1 µM on MAGL [2] was over 75%.
In the case of `O=C(OC(C(F)(F)F)C(F)(F)F)N1CCC2(CCCN2Cc2cc3cc(Cl)c(Cl)cc3[nH]2)CC1` [Example 112, 1,1,1,3,3.3-Hexafluoropropan-2-yl 1-((5,6-dichloro-1H-indol-2-yl)methyl)-1,8-diazaspiro[4.5] decane-8-carboxylate], the inhibition at 1 µM on MAGL [1] (human PFC (prefrontal cortex)) and on MAGL [2] was over 75% throughout.
With `CC(C)n1cc(CN2CCC3(CCN(C(=O)OC(C(F)(F)F)C(F)(F)F)CC3)C2)c(-c2cccc(C(=O)O)c2)n1` [Example 113, 3-(4-((8-(((1,1,1,3,3,3-Hexafluoropropan-2-yl)oxy)carbonyl)-2,8-diazaspiro[4.5]decan-2-yl)methyl)-1-isopropyl-1H-pyrazol-3-yl) benzoic acid], the inhibition at 1 µM on MAGL [1] (human PFC (prefrontal cortex)) and at MAGL [2] was 25 to 75% in each case.
Regarding `Cc1cc(Cl)c2nc(CN3CCCC34CCN(C(=O)OC(C(F)(F)F)C(F)(F)F)CC4)cn2c1` [Example 115, 1,1,1,3,3,3-Hexafluoropropan-2-yl 1-((8-chloro-6-methylimidazo [1,2-a]pyridin-2-yl)methyl)-1,8-diazaspiro[4.5] decane-8-carboxylate], the inhibition at 1 µM on MAGL [1] (human PFC (prefrontal cortex)) and on MAGL [2] was over 75% throughout. Also, the IC50 on MAGL [1] (setting [3]) is under 100 nM.
As to `O=C(OC(C(F)(F)F)C(F)(F)F)N1CCC2(CCCN2C(=O)c2cn3cc(C(F)(F)F)cc(Cl)c3n2)CC1` [Example 116, 1,1,1,3,3,3-Hexafluoropropan-2-yl 1-(8-chloro-6-(trifluoromethyl)imidazo[1,2-a]pyridine-2-carbonyl)-1,8-diazaspiro[4.5] decane-8-carboxylate], the inhibition at 1 µM at MAGL [1] (human PFC (prefrontal cortex)) and on MAGL [2] was over 75% throughout.
For `O=C(OC(C(F)(F)F)C(F)(F)F)N1CCC2(CCCN2C(=O)c2cnc(Cl)nc2N2CCCC2)CC1` [Example 117, 1,1,1,3,3,3-Hexafluoropropan-2-yl 1-(2-chloro-4-(pyrrolidin-1-yl)pyrimidine-5-carbonyl)-1,8-diazaspiro [4.5]decane-8-carboxylate], the inhibition at 1 µM at MAGL [1] (human PFC (prefrontal cortex)) and on MAGL [2] was over 75% throughout. Also, the IC50 at MAGL [1] (setting [3]) is under 100 nM.
In the case of `O=C(O)Cn1cc(CN2CCCC23CCN(C(=O)OC(C(F)(F)F)C(F)(F)F)CC3)c(-c2cccc(Cl)c2)n1` [Example 118, 2-(3-(3-Chlorophenyl)-4-((8-(((1,1,1,3,3,3-hexafluoropropan-2-yl)oxy)carbonyl)-1,8-diazaspiro[4.5]decan-1-yl)methyl)-1H-pyrazol-1-yl)acetic acid], the inhibition at 1 µM on MAGL [1] (human PFC (prefrontal cortex)) and on MAGL [2] was over 75% throughout. The IC50 at MAGL [1] (setting [3]) was under 100 nM.
For `O=C(OC(C(F)(F)F)C(F)(F)F)N1CCC2(CCCN2C(=O)c2cc(N3CCCC3)nc(Cl)n2)CC1` [Example 119, 1,1,1,3,3,3-Hexafluoropropan-2-yl 1-(2-chloro-6-(pyrrolidin-1-yl)pyrimidine-4-carbonyl)-1,8-diazaspiro [4.5]decane-8-carboxylate], the inhibition at 1 µM at MAGL [1] (human PFC (prefrontal cortex)) and on MAGL [2] was over 75% in each case. In addition, the IC50 on MAGL [1] (setting [3]) and at MAGL [1] (setting [4]) was under 100 nM each time.
Regarding `Cc1cc(C(F)(F)F)n2nc(C(=O)N3CCCC34CCN(C(=O)OC(C(F)(F)F)C(F)(F)F)CC4)c(Cl)c2n1` [Example 121, 1,1,1,3,3,3-Hexafluoropropan-2-yl 1-(3-chloro-5-methyl-7-(trifluoromethyl)pyrazolo[1,5-a]pyrimidine-2-carbonyl)-1,8-diazaspiro[4.5] decane-8-carboxylate], the inhibition at 1 µM at MAGL [1] (human PFC (prefrontal cortex)) and on MAGL [2] was over 75% each time. For the same compound, the IC50 on MAGL [1] (setting [4]) is under 100 nM.
Take `O=C(O)C1CCN(c2ncccc2CN2CCCC23CCN(C(=O)OC(C(F)(F)F)C(F)(F)F)CC3)CC1` [Example 124, 1-(3-((8-(((1,1,1,3,3,3-HexafIuoropropan-2-yl)oxy)carbonyl)-1,8-diazaspiro[4.5]decan-1-yl)methyl)pyridin-2-yl)piperidine-4-carboxylic acid]: the values for the inhibition at 1 µM at MAGL [1] (human PFC (prefrontal cortex)) and at MAGL [2] were 25 to 75% and over 75%, respectively.
`Cc1c(C(=O)N2CCCC23CCN(C(=O)OC(C(F)(F)F)C(F)(F)F)CC3)c(Cl)nn1C` [Example 125, 1,1,1,3,3,3-Hexafluoropropan-2-yl 1-(3-chloro-1,5-dimethyl-1H-pyrazole-4-carbonyl)-1,8-diazaspiro[4.5] decane-8-carboxylate]: the inhibition at 1 µM on MAGL [1] (human PFC (prefrontal cortex)) and at MAGL [2] was over 75% in each case. In addition, the 50% inhibitory concentration (IC50) on MAGL [1] (setting [3]) is under 100 nM.
`Cc1ncncc1C(=O)N1CCCC12CCN(C(=O)OC(C(F)(F)F)C(F)(F)F)CC2` [Example 127, 1,1,1,3,3,3-Hexafluoropropan-2-yl 1-(4-methyl-pyrimidine-5-carbonyl)-1,8-diazaspiro[4.5] decane-8-carboxylate]: the figures for the inhibition at 1 µM at MAGL [1] (human PFC (prefrontal cortex)) and on MAGL [2] were 25 to 75% and under 25%, respectively.
Take `Cc1nc(C)c(C(=O)N2CCCC23CCN(C(=O)OC(C(F)(F)F)C(F)(F)F)CC3)o1` [Example 128, 1,1,1,3,3,3-Hexafluoropropan-2-yl 1-(2,4-dimethyloxazole-5-carbonyl)-1,8-diazaspiro[4.5] decane-8-carboxylate]: the inhibition at 1 µM on MAGL [1] (human PFC (prefrontal cortex)) and on MAGL [2] was over 75% each time. For the same compound, the concentration for half-maximal inhibition (IC50) on MAGL [1] (setting [3]) is under 100 nM.
`Cc1c(Cl)c(C(=O)N2CCCC23CCN(C(=O)OC(C(F)(F)F)C(F)(F)F)CC3)nn1C` [Example 131, 1,1,1,3,3,3-Hexafluoropropan-2-yl 1-(4-chloro-1,5-dimethyl-1H-pyrazole-3-carbonyl)-1,8-diazaspiro[4.5] decane-8-carboxylate]: the inhibition at 1 µM on MAGL [1] (human PFC (prefrontal cortex)) and on MAGL [2] was over 75% throughout. The IC50 at MAGL [1] (setting [3]) was under 100 nM.
Consider `O=C(OC(C(F)(F)F)C(F)(F)F)N1CCC2(CCCN2Cc2cnc(N3CCN(C4CC4)CC3)s2)CC1` [Example 132, 1,1,1,3,3,3-Hexafluoropropan-2-yl 1-((2-(4-cyclopropylpiperazin-1-yl)thiazol-5-yl)methyl)-1,8-diazaspiro[4.5] decane-8-carboxylate], for which the inhibition at 1 µM on MAGL [1] (human PFC (prefrontal cortex)) and at MAGL [2] was over 75% each time. Further, the concentration for half-maximal inhibition (IC50) on MAGL [1] (setting [3]) was under 100 nM.
Consider `Cn1cc(Cl)c(CN2CCCC23CCN(C(=O)OC(C(F)(F)F)C(F)(F)F)CC3)n1` [Example 133, 1,1,1,3,3.3-Hexafluoropropan-2-yl 1-((4-chloro-1-methyl-1H-pyrazol-3-yl)methyl)-1,8-diazaspiro[4.5] decane-8-carboxylate], for which the inhibition at 1 µM at MAGL [1] (human PFC (prefrontal cortex)) and on MAGL [2] was over 75% throughout. For the same compound, on MAGL [1] (setting [3]), the half-inhibitory concentration (IC50) was under 100 nM.
Regarding `Cc1nc2ccccn2c1C(=O)N1CCCC12CCN(C(=O)OC(C(F)(F)F)C(F)(F)F)CC2` [Example 134, 1,1,1,3,3,3-Hexafluoropropan-2-yl 1-(2-methyl-imidazo[1,2-a]pyridine-3-carbonyl)-1,8-diazaspiro[4.5] decane-8-carboxylate], the inhibition at 1 µM at MAGL [1] (human PFC (prefrontal cortex)) and on MAGL [2] was over 75% in each case. The IC50 at MAGL [1] (setting [3]) is under 100 nM.
For `CN1CCN(c2ncncc2C(=O)N2CCCC23CCN(C(=O)OC(C(F)(F)F)C(F)(F)F)CC3)CC1` [Example 136, 1,1,1,3,3,3-Hexafluoropropan-2-yl 1-(4-(4-methylpiperazin-1-yl)pyrimidine-5-carbonyl)-1,8-diazaspiro [4.5]decane-8-carboxylate], the inhibition at 1 µM at MAGL [1] (human PFC (prefrontal cortex)) is 25 to 75%; on MAGL [2], under 25%.
Consider `COc1ncc(CN2CCCC23CCN(C(=O)OC(C(F)(F)F)C(F)(F)F)CC3)s1` [Example 138, 1,1,1,3,3,3-Hexafluoropropan-2-yl 1-((2-methoxythiazol-5-yl)methyl)-1,8-diazaspiro[4.5] decane-8-carboxylate], for which the inhibition at 1 µM on MAGL [1] (human PFC (prefrontal cortex)) and on MAGL [2] was over 75% each time. Besides, the IC50 at MAGL [1] (setting [3]) is under 100 nM.
With `O=C(OC(C(F)(F)F)C(F)(F)F)N1CCC2(CCCN2C(=O)c2c(C(F)(F)F)nc3n2CCCC3)CC1` [Example 139, 1,1,1,3,3,3-Hexafluoropropan-2-yl 1-(2-(trifluoromethyl)-5,6,7,8-tetrahydroimidazo [1,2-a]pyridine-3-carbonyl)-1,8-diazaspiro[4.5] decane-8-carboxylate], the inhibition at 1 µM on MAGL [1] (human PFC (prefrontal cortex)) and at MAGL [2] was over 75% each time. Further, the IC50 on MAGL [1] (setting [3]) is under 100 nM.
